According to paper PMC10242237 (Scientific Reports, 2023):
Like-named read-outs stand apart in the source and are kept apart here.

Columns and labels:
[1] = target: SARS-CoV-2 M^pro (Severe acute respiratory syndrome coronavirus 2, UniProt P0DTD1); test: biochemical; conditions: for inhibition at 0.1 µM: read-out: inhibition [%] SARS-CoV-2 Mpro, [I] = 100 nM; for inhibition at 1 µM: read-out: inhibition [%] SARS-CoV-2 Mpro, [I] = 1 µM
[2] = target: T1, SARS-CoV-2 PL^pro (Severe acute respiratory syndrome coronavirus 2, UniProt P0DTD1); test: biochemical; conditions: for inhibition at 1 µM: 0.5 h, read-out: inhibition [%] SARS-CoV-2 PLpro
[3] = target: SARS-CoV-2 nsp14 N7-MTase (Severe acute respiratory syndrome coronavirus 2, UniProt P0DTD1); test: Py-FLINT fluorescence assay of nsp14 N7-MTase; assay type: biochemical; conditions: for SARS-CoV-2 nsp14 Hill coefficient p: four-parameter dose-response fit, variable Hill slope
Method: To determine their IC50 values, we used the previously described fluorescence assay Py-FLINT[42],[67]. To this end, the Py-FLINT probe (1 μM) was incubated with SAM cosubstrate (20 μM), nsp14 enzyme (40 nM), and half-log inhibitor dilutions in 50 mM Tris–HCl pH 7.5 buffer at 30 °C. The reaction progress was monitored in 96-well cells by registering the fluorescence intensity signal with a 1-min time interval. Using the initial reaction course, the values of initial rates V were calculated. To calculate IC50 values from the obtained dependences of initial rates versus inhibitor concentration, we fitted a four-parameter dose–response equation, assuming a variable Hill slope p (Table 3, Fig. S2).
The Py-FLINT probe (1 μM) was incubated with SAM cosubstrate (20 μM), nsp14 (40 nM), and an inhibitor (half-log dilutions logCinh < − 2.5; 2 >). […] Initial rates V were calculated by fitting a linear curve to the first 10 points (10 min). To the obtained dependences V(Cinh) the following four-parameter dose–response equation was fitted:1 V/V0=A1+A2-A1/1+Cinh/IC50^p, where A1 and A2 are the bottom and top asymptotes, respectively; Cinh the inhibitor concentration; p is the Hill coefficient, and V/V0 is the ratio of the initial reaction rate with the inhibitor to that without the inhibitor. For curve fitting and IC50 calculations we used GraphPad Prism software.

[4] = tested on: A549 human cell line; conditions: cited from earlier work
[5] = tested on: Vero E6 cells; test: Cytotoxicity assay (XTT) in Vero E6 cells; assay type: cell-based; conditions: Vero E6 cells, three days, XTT
Method: (§1) Cytotoxicity was evaluated by incubating two-fold serial dilutions of each compound with Vero E6 cells.

[6] = tested on: SARS-CoV-2; test: Cytopathic effect (CPE)-based anti-SARS-CoV-2 assay in Vero E6 cells; conditions: read-out: EC50 CPE, three days, XTT
[7] = tested on: SARS-CoV-2; test: RNA reduction-based anti-SARS-CoV-2 assay (RT-qPCR) in Vero E6 cells; conditions: read-out: EC50 RNA, two days, RT-qPCR of medium
[8] = phase I clinical trial, humans; cited from earlier work
[9] = Cytotoxicity assay (XTT) in Vero E6 cells; assay type: cell-based; conditions: African green monkey
Method: as §1

[10] = tested on: M^pro; conditions: Protease-Glo luciferase and Flip-GFP assays; cited from earlier work
[11] = target: T1, SARS-CoV-2 PL^pro; conditions: Flip-GFP assay, 293T-ACE2 cells; cited from earlier work
[12] = tested on: M^pro; conditions: in vitro FRET substrate assay, recombinant enzyme; cited from earlier work
[13] = [E] = 100 nM, [I] = 1 µM, [S] = 10 µM

Structure (SMILES) | inhibition at 0.1 µM [1] [%] | inhibition at 1 µM [2] [%] | inhibition [%] SARS-CoV-2 PLpro [2, 13] [%] | inhibition at 1 µM [1] [%] | EC50 [6] [µM] | further results
O=c1c2ccccc2[se]n1-c1ccccc1F [Compound 1] | 72.3 ± 2.3 | 54.6 ± 2 | – | – | – | –
O=c1c2ccccc2[se]n1-c1ccccc1Cl [Compound 2] | 66.5 ± 3.4 | 56.7 ± 4.1 | – | – | – | –
O=c1c2ccccc2[se]n1-c1ccccc1Br [Compound 3] | 73.3 ± 4.5 | 59.2 ± 4.5 | – | – | – | SARS-CoV-2 nsp14 Hill coefficient p [3]: 3.12 ± 0.47
Cc1ccccc1-n1[se]c2ccccc2c1=O [Compound 4] | 63.4 ± 2.7 | – | 55.8 ± 5.2 | – | – | –
O=c1c2ccccc2[se]n1-c1ccccc1C(F)(F)F [Compound 5] | 62.8 ± 0.7 | – | 44.4 ± 2.5 | – | – | –
O=c1c2ccccc2[se]n1-c1ccccc1[N+](=O)[O-] [Compound 6] | 38.5 ± 2.3 | – | 46.6 ± 2.3 | – | – | –
O=c1c2ccccc2[se]n1-c1ncccc1O [Compound 7, 2-(3-hydroxypyridin-2-yl)-1,2-benzisoselenazol-3(2H)-one] | 55.9 ± 4.1 | 84.4 ± 2.1 | – | – | – | melting point: 228 to 229 °C (dec.); SARS-CoV-2 nsp14 Hill coefficient p [3]: 4.08 ± 1.33
COc1cccc(-n2[se]c3ccccc3c2=O)c1 [Compound 8] | 59.9 ± 4.8 | 52.6 ± 1.4 | – | – | – | –
O=c1c2ccccc2[se]n1-c1ccc(C(F)(F)F)cc1 [Compound 9] | 71 ± 9.3 | 48 ± 3.6 | – | – | – | –
O=c1c2ccccc2[se]n1-c1ccc([N+](=O)[O-])cc1 [Compound 10] | 82.9 ± 1.7 | 56.2 ± 4.2 | – | – | – | SARS-CoV-2 nsp14 Hill coefficient p [3]: 1.73 ± 0.35
O=c1c2ccccc2[se]n1-c1ccc(I)cc1 [Compound 11] | 71.6 ± 5.6 | 48 ± 2.1 | – | – | – | melting point: 203 to 204 °C
CC(=O)c1ccc(-n2[se]c3ccccc3c2=O)cc1 [Compound 12] | 55.1 ± 2.7 | – | 59.0 ± 3.0 | – | – | –
CC(=O)Nc1ccc(-n2[se]c3ccccc3c2=O)cc1 [Compound 13] | 62 ± 1 | 57.3 ± 1.8 | – | – | – | –
O=c1c2ccccc2[se]n1-c1ccc(F)cc1F [Compound 14] | 64.8 | – | 58.1 ± 3.9 | – | – | –
O=c1c2ccccc2[se]n1-c1ccc(Cl)cc1F [Compound 15] | 77.1 ± 2.8 | – | 55.7 ± 3.1 | – | – | –
COc1ccc(-n2[se]c3ccccc3c2=O)c(OC)c1 [Compound 16] | 59 ± 1.5 | 64.3 ± 3.8 | – | – | – | melting point: 238 to 240 °C; SARS-CoV-2 nsp14 Hill coefficient p [3]: 2.36 ± 0.32; toxicity in A549 cells, times lower in comparison with ebselen [4]: 10 times
O=c1c2ccccc2[se]n1-c1cc(Cl)ccc1F [Compound 17, 2-(5-chloro-2-fluorophenyl)-1,2-benzisoselenazol-3(2H)-one] | 82.3 ± 2.1 | 47.2 ± 1 | – | – | – | SARS-CoV-2 nsp14 Hill coefficient p [3]: 2.15 ± 0.28
O=c1c2ccccc2[se]n1-c1cc(Cl)ccc1Cl [Compound 18] | 72.3 ± 3.1 | – | 47.8 ± 0.9 | – | – | –

Structure (SMILES) | inhibition at 0.1 µM [1] [%] | inhibition at 1 µM [2] [%] | inhibition [%] SARS-CoV-2 PLpro [2, 13] [%] | inhibition at 1 µM [1] [%] | EC50 [6] [µM] | further results
Cc1ccc(Cl)c(-n2[se]c3ccccc3c2=O)c1 [Compound 19] | 61.8 ± 0.5 | – | 57.6 ± 3.0 | – | – | –
Cc1ccc(Cl)cc1-n1[se]c2ccccc2c1=O [Compound 20] | 69 ± 3.5 | 62.6 ± 1.7 | – | – | – | –
Cc1c(Cl)cccc1-n1[se]c2ccccc2c1=O [Compound 21] | 70.6 ± 1.4 | 58.3 ± 2.4 | – | – | – | melting point: 282 to 283 °C
Cc1cc(-n2[se]c3ccccc3c2=O)ccc1Cl [Compound 22] | 72.2 ± 0.8 | 43.1 ± 2.1 | – | – | – | –
COc1ccc(-n2[se]c3ccccc3c2=O)cc1OC [Compound 23] | 60.6 ± 0.4 | 58 ± 1.9 | – | – | – | –
O=C(Nc1ccccc1F)c1ccccc1[Se][Se]c1ccccc1C(=O)Nc1ccccc1F [Compound 25] | 33 ± 5.5 | – | 82.1 ± 2.7 | 100 | 3.1 ± 0.36 | CC50 [5]: ~60 µM; IC50 [3]: 0.12 ± 0.01 µM; EC50 [7]: 1.9 ± 0.15 µM
O=C(Nc1ccccc1C(F)(F)F)c1ccccc1[Se][Se]c1ccccc1C(=O)Nc1ccccc1C(F)(F)F [Compound 26] | 34.5 ± 4.4 | – | 61.3 ± 2.2 | 78.1 ± 2.4 | 37 ± 2.4 | CC50 [5]: > 50 µM; IC50 [3]: 1.82 ± 0.32 µM
O=C(Nc1cccc(F)c1)c1ccccc1[Se][Se]c1ccccc1C(=O)Nc1cccc(F)c1 [Compound 27, bis[2-(3-fluorophenylcarbamoyl)]phenyl diselenide] | 44 ± 4.1 | – | 90.1 ± 5.4 | 100 | 0.7 ± 0.13 | CC50 [5]: > 50 µM; IC50 [3]: 0.18 ± 0.04 µM; EC50 [7]: 1.5 ± 0.15 µM
COc1cccc(NC(=O)c2ccccc2[Se][Se]c2ccccc2C(=O)Nc2cccc(OC)c2)c1 [Compound 28] | 37 ± 4.3 | – | 81.9 ± 0.8 | 100 | 7.6 ± 0.71 | CC50 [5]: > 50 µM; IC50 [3]: 0.58 ± 0.04 µM; EC50 [7]: 2.7 ± 0.23 µM
O=C(Nc1ccc(C(F)(F)F)cc1)c1ccccc1[Se][Se]c1ccccc1C(=O)Nc1ccc(C(F)(F)F)cc1 [Compound 29] | 14 ± 2.4 | – | 61.3 ± 3.4 | 100 | 29 ± 3.5 | CC50 [5]: > 50 µM; IC50 [3]: 4.5 ± 1.3 µM
O=C(Nc1ccc(Cl)cc1F)c1ccccc1[Se][Se]c1ccccc1C(=O)Nc1ccc(Cl)cc1F [Compound 30] | 27.4 | – | 75.1 ± 0.4 | 49.6 ± 2.7 | 1.1 ± 0.15 | CC50 [5]: > 50 µM; IC50 [3]: 11.5 ± 1.4 µM; EC50 [7]: 1.9 ± 0.1 µM
COc1ccc(NC(=O)c2ccccc2[Se][Se]c2ccccc2C(=O)Nc2ccc(OC)cc2OC)c(OC)c1 [Compound 31] | 50 ± 1 | – | 76.6 ± 2.4 | 100 | 7.1 ± 0.84 | CC50 [5]: > 50 µM; IC50 [3]: 0.91 ± 0.1 µM; EC50 [7]: 2.8 ± 0.31 µM
Cc1ccc(Cl)cc1NC(=O)c1ccccc1[Se][Se]c1ccccc1C(=O)Nc1cc(Cl)ccc1C [Compound 32] | 55.4 ± 3.8 | – | 72.4 ± 1.7 | 100 | 22 ± 2.5 | CC50 [5]: > 50 µM; IC50 [3]: 12.1 ± 1.1 µM
Cc1cc(NC(=O)c2ccccc2[Se][Se]c2ccccc2C(=O)Nc2ccc(Cl)c(C)c2)ccc1Cl [Compound 33] | 48.7 ± 5.4 | – | 72.1 ± 3.2 | 92 ± 0.3 | 20 ± 1.4 | CC50 [5]: > 50 µM; IC50 [3]: 1.06 ± 0.05 µM; EC50 [7]: 1.7 ± 0.08 µM
O=C(Nc1c(F)cccc1Cl)c1ccccc1[Se][Se]c1ccccc1C(=O)Nc1c(F)cccc1Cl [Compound 34] | 32 ± 2.1 | – | 60.2 ± 1.7 | 43.1 ± 3 | 9.3 ± 0.92 | CC50 [5]: > 50 µM; IC50 [3]: 2.1 ± 0.58 µM; EC50 [7]: 3.4 ± 0.2 µM
O=c1c2ccccc2[se]n1-c1ccccc1 [Ebselen, 2-phenylbenzisoselenazol-3(2H)-one, reference compound] | – | – | – | 100 | 34 ± 7.9 | tolerated single dose [8]: 1600 mg; CC50 at 3 days [9]: ~30 µM; SARS-CoV-2 nsp14 Hill coefficient p [3]: 2.74 ± 0.47; inhibition at 0.1 µM ([1]; [E] = 100 nM, [I] = 100 nM, [S] = 50 µM): 57.6 ± 1.3%; inhibition at 1 µM [2, 13]: 65.4 ± 2.4%; M^pro inhibition in cells [10]: no M^pro inhibition; SARS-CoV-2 PL^pro inhibition in cells [11]: no SARS-CoV-2 PL^pro inhibition; M^pro inhibition in presence of reducing agent [12]: does not inhibit
CCC(CC)COC(=O)[C@H](C)N[P@](=O)(OC[C@H]1O[C@@](C#N)(c2ccc3c(N)ncnn23)[C@H](O)[C@@H]1O)Oc1ccccc1 [Remdesivir, reference compound] | – | – | – | – | 0.1 ± 0.01 | CC50 at 3 days ([9]; Vero E6 cells, three days, XTT, read-out: CC50): > 50 µM; EC50 [7]: 0.66 ± 0.06 µM
